From US20100137300A1, “Indolizine Acetic Acid Derivatives as CRTH2 Antagonists” (priority 2007, published 2010)

Target: T1, CRTH2 receptor (Homo sapiens, UniProt Q9Y5Y4)
T1 construct: expressed in transfected cells; host or cells: Human embryonic kidney (HEK) cells, membranes
T1 sequence (Q9Y5Y4 1-395): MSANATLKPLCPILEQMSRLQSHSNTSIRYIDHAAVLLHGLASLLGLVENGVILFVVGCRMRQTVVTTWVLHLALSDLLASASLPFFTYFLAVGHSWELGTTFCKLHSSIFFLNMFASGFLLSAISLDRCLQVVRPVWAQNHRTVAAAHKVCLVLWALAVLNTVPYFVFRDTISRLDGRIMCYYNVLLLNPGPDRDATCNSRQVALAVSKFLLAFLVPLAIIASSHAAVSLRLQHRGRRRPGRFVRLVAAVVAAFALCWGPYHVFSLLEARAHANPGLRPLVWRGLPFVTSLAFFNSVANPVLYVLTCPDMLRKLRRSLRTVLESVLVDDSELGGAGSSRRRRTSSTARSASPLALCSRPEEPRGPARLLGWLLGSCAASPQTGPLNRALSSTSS
Experiment: CRTH2 radioligand binding assay ([3H]-PGD2 displacement)
Conditions: HEK cell membranes expressing the CRTH2 receptor, 1 nM [3H]-PGD2
Procedure: The receptor binding assay is performed in a final volume of 200 μL binding buffer [10 mM BES (pH 7.4), 1 mM EDTA, 10 mM manganese chloride, 0.01% BSA] and 1 nM [^3H]-PGD2 (Amersham Biosciences UK Ltd). Ligands are added in assay buffer containing a constant amount of DMSO (1% by volume). Total binding is determined using 1% by volume of DMSO in assay buffer and non-specific binding is determined using 10 μM of unlabeled PGD2 (Sigma). Human embryonic kidney (HEK) cell membranes (3.5 μg) expressing the CRTH2 receptor are incubated with 1.5 mg wheatgerm agglutinin SPA beads and 1 nM [^3H]-PGD2 (Amersham Biosciences UK Ltd) and the mixture incubated for 3 hours at room temperature. Bound [^3H]-PGD2 is detected using a Microbeta TRILUX liquid scintillation counter (Perkin Elmer). Compound IC50 value is determined using a 6-point dose response curve in duplicate with a semi-log compound dilution series. IC50 calculations are performed using Excel and XLfit (Microsoft), and this value is used to determine a Ki value for the test compound using the Cheng-Prusoff equation.

| IC50 [nM] | SMILES |
| --- | --- |
| 58 | Cc1c(Cc2ccc(S(=O)(=O)N3CCOCC3)cc2)c2cc(C#N)ccn2c1CC(=O)O [Example 1, {7-cyano-2-methyl-1-[4-(morpholine-4-sulfonyl)benzyl]indolizin-3-yl}acetic acid] |
| 19 | Cc1c(Cc2ccc3cc(F)ccc3n2)c2cc(C#N)ccn2c1CC(=O)O [Example 6, [7-cyano-1-(6-fluoroquinolin-2-ylmethyl)-2-methylindolizin-3-yl]acetic acid] |
